Experimental data as given in patent US5124350A, “Leukotriene B4 antagonists” (G. D. Searle & Co., priority 1990, dated 1992).

Assays:
[1] = target: T1, LTB4 Receptor (Homo sapiens, UniProt Q15722); test: LTB4 Receptor Binding Assay ((3H) LTB4, human neutrophils); conditions: relative to the compound of Example 1 (b), defined as 1.0
T1 construct: Neutrophils were purified from venous blood of normal human donors; endogenous in cells; host or cells: neutrophils from venous blood of normal human donors
T1 sequence (Q15722 whole entry): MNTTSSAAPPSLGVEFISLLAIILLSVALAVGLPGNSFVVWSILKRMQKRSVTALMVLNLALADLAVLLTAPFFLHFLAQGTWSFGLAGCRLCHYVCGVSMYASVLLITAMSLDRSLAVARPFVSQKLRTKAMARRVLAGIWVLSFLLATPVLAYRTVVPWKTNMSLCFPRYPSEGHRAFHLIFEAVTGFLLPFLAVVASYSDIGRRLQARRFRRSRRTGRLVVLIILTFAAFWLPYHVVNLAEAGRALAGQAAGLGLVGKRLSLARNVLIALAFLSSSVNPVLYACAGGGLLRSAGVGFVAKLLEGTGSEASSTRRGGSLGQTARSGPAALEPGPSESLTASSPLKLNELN
Description: (§1) Neutrophils were purified from venous blood of normal human donors using standard techniques of dextran sedimentation, centrifugation on Ficoll-paque® (Pharmacia) or Histopaque® sterile solution (Sigma) and hypotonic lysis of erythrocytes (Boyum, A., Isolation of Leukocytes From Human Blood: Further Observations. Scand. J. Lab. Clin. Invest., 21 (Suppl. 97): 31, 1968). The purity of isolated neutrophils was>95%.
Neutrophils (4-6×10^6) in 1 ml Hanks' balanced salt solution (HBSS) containing 10 mM HEPES buffer , pH 7.4 and […] nordihydroguaiaretic acid were incubated with 0.6×10^-9 M (^3 H) LTB4 in the presence or absence of test compounds. The incubation was carried out at 0° C. for 45 minutes and terminated by adding 5ml of ice-cold HBSS followed by rapid filtration of the incubation mixture under vacuum through GF/C glass fiber filters. The filters were further washed with 10 ml HBSS and radioactivity was determined. Specific binding was defined as the difference between total binding and nonspecific binding which was not displaced by 10^-7 M unlabeled LTB4. All data refer to specific binding.

[2] = system: Human neutrophils (LTB4 chemotaxis); test: Modified Boyden Chamber Chemotaxis, LTB4; type: cell-based; conditions: relative to the compound of Example 1 (b), defined as 1.0; 3×10^-8 M LTB4
Excerpt: as §1
(§2) Human neutrophils were isolated from citrated peripheral blood using standard techniques of dextran sedimentation, followed by centrifugation on Histopaque® sterile solution (Sigma) or Ficoll-paque® (Pharmacia) and hypotonic lysis of erythrocytes. A final cell suspension of 3.4×10^6 neutrophils/ml of HEPES-buffered Hanks' balanced salt solution (HBSS, pH 7.3) was added to the upper well (0.8 ml ) of a modified Boyden chamber (blind well). The lower well (0.2 ml), separated by a polycarbonate membrane (Nucleopore Corp.), contained HBSS or 3×10^-8 M LTB4 in the presence or absence of test compound. […] The number of neutrophils migrating into the lower chamber in the absence of chemoattractant was subtracted from the number of cells migrating in the presence of a chemoattractant. Inhibition of chemotaxis by test compounds was expressed as percent inhibition relative to uninhibited control.
(§3) Data are expressed as potency relative to the compound of Example i(b ), 7-[3,(4-acetyl-3-methoxy-2propylphenoxy)propoxy]-3,4-dihydro-8-propyl-2H-1-benzopyran-2-carboxylic acid, which is disclosed in U.S. Pat. No. 4,889,871.

[3] = system: Human neutrophils (fMLP chemotaxis); test: Modified Boyden Chamber Chemotaxis, fMLP; type: cell-based; conditions: relative to the compound of Example 1 (b), defined as 1.0
Excerpt: [The procedure below names another target; the source lists this target under the same test.] as §1, §2, §3

Relative Potency, LTB4 Receptor Binding [1]	SMILES	Relative Potency, Chemotaxis LTB4 [2]	Relative Potency, Chemotaxis fMLP [3]
8.9	C=CCc1c(OCCCOc2ccc3c(c2CCC)OC(CCC(=O)O)CC3)ccc(C(=O)NC)c1OC (stereo not drawn) [Example 9, 3,4-Dihydro-7-[3-[3-methoxy-4-[(methylamino)carbonyl]-2-(2-propenyl)phenoxy]propoxy]8-propyl-2H-1-benzopyran-2-propanoic acid]	12.3	0.38
0.04	C=CCc1c(OCCCOc2cccc(OCC(=O)O)c2CCC)ccc(C(=O)N2CCCC2)c1OC [Example 59, [3-[3-[3-Methoxy-2-(2-propenyl)-4-(1-pyrrolidinylcarbonyl)phenoxy]propoxy]-2-propylphenoxy]acetic acid]	< 0.9	
5.3	CCCc1c(OCCCOc2ccc(C(=O)NC)c(OC)c2CC2CC2)ccc2c1OC(C(=O)O)CC2 (stereo not drawn) [Example 19, 7-[3-[2-(Cyclopropylmethyl)-3-methoxy-4-[(methylamino)carbonyl]phenoxy]propoxy]-3,4-dihydro-8-propyl-2H-1-benzopyran-2-carboxylic acid]	16.9	1.57
4.0	CCCc1c(OCCCOc2ccc(C(=O)NC)c(OC)c2CCC)ccc2c1OC(CCC(=O)O)CC2 (stereo not drawn) [Example 14, 3,4-Dihydro-7-[3-[3-methoxy-4-[(methylamino)carbonyl]-2-propylphenoxy]propoxy]-8-propyl-2H-1-benzopyran-2-propanoic acid]	4.1	0.52
0.04	CCCc1c(OCCCOc2ccc(C(=O)N3CCCC3)c(OC)c2CCC)cccc1OCC(=O)O [Example 50, [3-[3-[3-Methoxy-2-propyl-4-(1-pyrrolidinylcarbonyl)phenoxy]propoxy]2-propylphenoxy]acetic acid]	0.05	< 0.48
1.0	C=CCc1c(OCCCOc2cccc(OCC(=O)O)c2CCC)ccc(C(N)=O)c1OC [Example 56, [3-[3-[4-(Aminocarbonyl)-3-methoxy-2-(2-propenyl)phenoxy]propoxy]-2-propylphenoxy] acetic acid]	2.6	< 0.63
0.83	CCCc1c(OCCCOc2ccc(C(N)=O)c(OC)c2CCC)cccc1OCC(=O)O [Example 43, [3-[3-[4-(Aminocarbonyl)-3-methoxy-2-propylphenoxy]propoxy]-2-propylphenoxy]acetic acid]	1.1	≤ 0.63
0.71	CCCc1c(OCCCOc2ccc(C(=O)NC)c(OC)c2CCC)cccc1OCC(=O)O [Example 46, [3-[3-[3-Methoxy-4-[(methylamino)carbonyl]-2-propylphenoxy]propoxy]-2-propylphenoxy]acetic acid]	0.58	≤ 0.048
2.1	C=CCc1c(OCCCOc2ccc3c(c2CCC)OC(C(=O)O)CC3)ccc(C(N)=O)c1OC (stereo not drawn) [Example 32, 7-[3-[4-(Aminocarbonyl)-3-methoxy-2-(2-propenyl)phenoxy]propoxy]-3,4-dihydro-8-propyl-2H-1-benzopyran-2-carboxylic acid]	4.0	1.5
1.0	C=CCc1c(OCCCOc2ccc3c(c2CCC)OC(C(=O)O)CC3)ccc(C(=O)N2CCCC2)c1OC (stereo not drawn) [Example 29, 3,4-Dihydro-7-[3-[3-methoxy-2-(2-propenyl)-4-(1-pyrrolidinylcarbonyl)phenoxy]propoxy]-8-propyl-2H-1-benzopyran-2-carboxylic acid]	0.18	
8.5	CCCc1c(OCCCOc2ccc(C(=O)NC)c(OC)c2CC2CC2)ccc2c1OC(CCC(=O)O)CC2 (stereo not drawn) [Example 62, 7-[3-[2-(Cyclopropylmethyl)-3-methoxy-4-[(methylamino)carbonyl]phenoxy]propoxy]-3,4-dihydro-8-propyl-2H-1-benzopyran-2-propanoic acid]	17.4	0.69
2.1	C=CCc1c(OCCCOc2ccc3c(c2CCC)OC(C(=O)O)CC3)ccc(C(=O)NC)c1OC (stereo not drawn) [Example 26, 3,4-Dihydro-7-[3-[3-methoxy-4-[(methylamino)carbonyl]-2-(2-propenyl)phenoxy]propoxy]-8-propyl 2H-1-benzopyran-2-carboxylic acid]	7.6	0.95
0.81	CCCc1c(OCCCOc2ccc(C(=O)NC)c(OC)c2CCC)ccc2c1OC(C(=O)O)CC2 (stereo not drawn) [Example 35, 3,4-Dihydro-7-[3-[3-methoxy-2-propyl-4-[(methylamino)carbonyl]phenoxy]propoxy]-8-propyl-2H-1-benzopyran-2-carboxylic acid]	2.6	
